Laboratory results taken from ChEMBL document CHEMBL6109109, “Fatty acid binding protein 5 inhibitors as novel anticancer agents against metastatic castration-resistant prostate cancer” (Bioorg Med Chem, 2025).

How the values were obtained:
PC-3 = assay: Cytotoxicity against human PC-3 cells assessed as reduction in cell viability measured after 72 hrs by MTT assay; assay type: functional, cell-based; details: PC-3, 72 h
[1] = Binding affinity to FABP5 (unknown origin); parameters: species or system Homo sapiens
[2] = Cytotoxicity against mouse RCap cells assessed as reduction in cell viability measured after 72 hrs by MTT assay; assay type: functional, cell-based
[3] = Cytotoxicity against human WI-38 cells assessed as reduction in cell viability measured after 72 hrs by MTT assay; assay type: toxicity, cell-based

Structure (SMILES)	IC50 (PC-3) [µM]	Ki [1] [µM]	IC50 [2] [µM]	IC50 at 72 h [3] [µM]
O=C(O)[C@H]1[C@H](c2ccccc2)[C@H](C(=O)OC2Cc3ccccc3C2)[C@H]1c1ccccc1	37.6			
O=C(O)[C@H]1[C@H](c2ccccc2)[C@H](C(=O)Oc2ccccc2-c2ccccc2)[C@H]1c1ccccc1	16.2			
COc1ccccc1[C@H]1[C@H](C(=O)O)[C@H](c2ccccc2OC)[C@H]1C(=O)OC1Cc2ccccc2C1	16.5			
O=C(O)[C@H]1[C@H](c2ccccc2)[C@H](C(=O)Oc2cccc(C3=CCOCC3)c2)[C@H]1c1ccccc1	52	1.75		
COc1ccccc1[C@H]1[C@H](C(=O)O)[C@H](c2ccccc2OC)[C@H]1C(=O)Oc1ccccc1-c1ccccc1	19.8	1.59		
COc1ccccc1[C@H]1[C@H](C(=O)O)[C@H](c2ccccc2OC)[C@@H]1C(=O)Oc1ccc(OC)c2ccccc12	19.6	26.6		
COc1ccccc1[C@H]1[C@H](C(=O)O)[C@H](c2ccccc2OC)[C@H]1C(=O)Oc1ccccc1-c1ccc2c(c1)OCO2	19.9	1.59		
O=C(O)[C@H]1[C@H](c2ccccc2)[C@@H](C(=O)Oc2cc(-c3ccc4c(c3)OCO4)ccc2Br)[C@H]1c1ccccc1	7.72	0.89	9.98	25.9
Cn1cc(-c2ccc(-c3ccc4c(c3)OCO4)cc2OC(=O)[C@H]2[C@@H](c3ccccc3)[C@@H](C(=O)O)[C@@H]2c2ccccc2)cn1	10.3	0.76	6.16	26.4
O=C1Cc2ccc(-c3ccccc3OC(=O)[C@H]3[C@@H](c4ccccc4)[C@H](C(=O)O)[C@@H]3c3ccccc3)cc2N1	63.9	0.29		
O=C(O)[C@H]1[C@H](c2ccccc2)[C@@H](C(=O)Oc2cc(-c3ccc4c(c3)OCCO4)cc3c2OCCO3)[C@H]1c1ccccc1	20.7	3.5		
O=C(O)[C@@H]1[C@@H](c2ccccc2)[C@H](C(=O)OCc2ccccc2-c2ccccc2)[C@H]1c1ccccc1	22.1	1.65		
COc1ccccc1[C@H]1[C@H](C(=O)O)[C@H](c2ccccc2OC)[C@H]1C(=O)Oc1cc(-c2ccc3c(c2)OCO3)ccc1-c1cncnc1	10.6	0.64	20.5	66.4
COc1ccccc1[C@H]1[C@H](C(=O)O)[C@H](c2ccccc2OC)[C@H]1C(=O)Oc1cc(-c2ccc3c(c2)OCO3)ccc1Br	10.4	0.35	8.48	15.6
O=C(O)[C@H]1[C@H](c2ccccc2)[C@H](C(=O)Oc2cc(-c3ccc4c(c3)OCO4)ccc2-c2cncnc2)[C@H]1c1ccccc1	12.5		30.2	95.5
C#Cc1ccc(-c2ccc3c(c2)OCO3)cc1OC(=O)[C@H]1[C@@H](c2ccccc2OC)[C@@H](C(=O)O)[C@@H]1c1ccccc1OC	21.8	1.68		
COc1ccccc1[C@H]1[C@H](C(=O)O)[C@H](c2ccccc2OC)[C@H]1C(=O)Oc1cc(-c2ccc3c(c2)OCO3)ccc1-c1cnn(C)c1	5.71	0.54	7.94	29.8
O=C(O)[C@H]1[C@H](c2ccccc2)[C@@H](C(=O)Oc2cccc(-c3ccc4c(c3)OCCO4)c2)[C@H]1c1ccccc1	9.5	2.47	13.6	31.8
N#CCc1ccc(-c2ccccc2)cc1OC(=O)[C@H]1[C@@H](c2ccccc2)[C@H](C(=O)O)[C@@H]1c1ccccc1	9.47	0.64	22.4	47.3
Cn1cc(-c2ccc(-c3ccc4c(c3)OCO4)cc2OC(=O)[C@H]2[C@@H](c3ccccc3)[C@H](C(=O)O)[C@@H]2c2ccccc2)cn1	9.66	0.29	8.82	24.1
O=C(O)[C@H]1[C@H](c2ccccc2)[C@H](C(=O)Oc2ccc3cc(-c4cncnc4)ccc3c2)[C@H]1c1ccccc1	12.1		18.7	91.9
O=C(O)[C@H]1[C@H](c2ccccc2)[C@H](C(=O)Oc2cc(-c3ccc4c(c3)OCO4)ccc2Br)[C@H]1c1ccccc1	9.36	0.37	14.8	24.8

Structure (SMILES)	IC50 (PC-3) [µM]	Ki [1] [µM]	IC50 [2] [µM]	IC50 at 72 h [3] [µM]
O=C(O)[C@@H]1[C@@H](c2ccccc2)[C@H](C(=O)Oc2cccc3ccccc23)[C@H]1c1ccccc1	23.8			
COc1ccccc1[C@H]1[C@H](C(=O)O)[C@H](c2ccccc2OC)[C@H]1C(=O)Oc1cccc(-c2ccc3c(c2)NC(=O)C3)c1	16.2	1.06		
COc1ccccc1[C@H]1[C@H](C(=O)O)[C@H](c2ccccc2OC)[C@H]1C(=O)Oc1cc(-c2ccccc2)ccc1CC#N	7.31	0.81	8.31	24.4
O=C(O)[C@H]1[C@H](c2ccccc2)[C@@H](C(=O)Oc2cc(-c3ccc4c(c3)OCO4)ccc2-c2ccccc2)[C@H]1c1ccccc1	9.76	1.17	5.53	22.4
O=C(O)[C@H]1[C@H](c2ccccc2)[C@@H](C(=O)Oc2cc(-c3ccc4c(c3)OCO4)ccc2-c2cncnc2)[C@H]1c1ccccc1	5.88		2.92	31.5
COc1ccccc1[C@H]1[C@H](C(=O)O)[C@H](c2ccccc2OC)[C@H]1C(=O)Oc1cccc(-c2ccc(C#N)cc2)c1	8.17	1.74	19.1	26.1
N#CCc1ccc(-c2ccc3c(c2)OCO3)cc1OC(=O)[C@H]1[C@@H](c2ccccc2)[C@H](C(=O)O)[C@@H]1c1ccccc1	13	0.64		46.3
COc1ccccc1[C@H]1[C@H](C(=O)O)[C@H](c2ccccc2OC)[C@@H]1C(=O)Oc1cccc2ccccc12	25.5			
COc1ccccc1[C@H]1[C@H](C(=O)O)[C@H](c2ccccc2OC)[C@H]1C(=O)Oc1cccc(-c2ccc(O)c(O)c2)c1	40.1	1.25		
COc1ccccc1[C@H]1[C@H](C(=O)O)[C@H](c2ccccc2OC)[C@H]1C(=O)Oc1cc(-c2ccc(C#N)cc2)ccc1CC#N	6.39	0.77	12.4	25.4
CC(=O)N1CC=C(c2cccc(OC(=O)[C@H]3[C@@H](c4ccccc4)[C@@H](C(=O)O)[C@@H]3c3ccccc3)c2)CC1	67.4	28.9		
O=C(O)[C@H]1[C@H](c2ccccc2)[C@H](C(=O)OCc2cccc3ccccc23)[C@H]1c1ccccc1	19.1	2.64		
N#CCc1ccc(-c2ccc3c(c2)OCO3)cc1OC(=O)[C@H]1[C@@H](c2ccccc2)[C@@H](C(=O)O)[C@@H]1c1ccccc1	12.8	1.42		66.3
N#Cc1ccc(-c2ccc3c(c2)OCCO3)cc1OC(=O)[C@H]1[C@@H](c2ccccc2)[C@H](C(=O)O)[C@@H]1c1ccccc1	15.1	0.64		
N#Cc1ccc(-c2ccccc2OC(=O)[C@H]2[C@@H](c3ccccc3)[C@@H](C(=O)O)[C@@H]2c2ccccc2)cc1	20.5	1.39		
O=C1Cc2cc(-c3cccc(OC(=O)[C@H]4[C@@H](c5ccccc5)[C@@H](C(=O)O)[C@@H]4c4ccccc4)c3)ccc2N1	20	2.21		
COc1ccccc1[C@H]1[C@H](C(=O)O)[C@H](c2ccccc2OC)[C@H]1C(=O)Oc1cc(-c2ccc(C#N)cc2)ccc1-c1cncnc1	14.9	0.38		
COc1ccccc1[C@H]1[C@H](C(=O)O)[C@H](c2ccccc2OC)[C@H]1C(=O)Oc1cccc(-c2ccc(F)cc2)c1	10.8	1.03	12.3	29.2
COc1ccccc1[C@H]1[C@H](C(=O)O)[C@H](c2ccccc2OC)[C@H]1C(=O)Oc1cc(-c2ccc(C#N)cc2)ccc1-c1ccccc1	4.82	0.62	14.5	> 100
C#Cc1ccc(-c2ccc(C#N)cc2)cc1OC(=O)[C@H]1[C@@H](c2ccccc2OC)[C@H](C(=O)O)[C@@H]1c1ccccc1OC	8.89	1.02	17.4	> 200
O=C(O)[C@H]1[C@H](c2ccccc2)[C@H](C(=O)Oc2cccc(-c3ccc(O)c(O)c3)c2)[C@H]1c1ccccc1	52.9	1.25		
COc1ccccc1[C@H]1[C@H](C(=O)O)[C@H](c2ccccc2OC)[C@H]1C(=O)Oc1ccccc1-c1ccc2c(c1)OCCO2	17.8	2.81		
